# From US6699834B1, “Method for treating cancer” (University of Maryland Biotechnology Institute, priority 1997, dated 2004)
# Bridge positions count the residues as written; N and C are the ends. Ends that are not written are not given here.
# Experiments:
# [1] = test system: HIV RNA and protein expression; test: HIV RNA and protein expression in HIV-1 transgenic mice; assay type: in vivo
# Excerpt: (§1) The HIV-1 transgenic mice used for this study contain 7.4 kb of foreign DNA, including 5.1 kb of the HIV-1 proviral genome deleted in the gag and pol genes and 2.3 kb of vector (Dickie et al., 1991, Virology 185:109-119). […] In addition, these mice develop severe hyperkeratotic skin lesions with marked expression of gp 120 and nef genes (Kopp et al., 1993, AIDS Res. Hum. Retroviruses 9:267-275; Vasli et al., 1994, AIDS Res. Hum. Retroviruses 10:1241-1250).
# Heterozygous transgenic mothers were treated with the hCG preparation subcutaneously twice weekly. Pups received hCG via the mother's milk.
# Gene expression was assayed in total RNA extracted from the skin of Tg26 mice with RNAzol. One microgram of RNA was reverse transcribed into cDNA using random hexamer primers and […] reverse transcriptase (Life Technologies, MD) in a final volume of 30 μl. One tenth of the cDNA reactions were used for PCR amplification of various HIV gene sequences (env, tat, rev, nef and vif). In addition, glyceraldehyde 3-phosphate dehydrogenase (GAPHD) mRNA was amplified for each sample for normalization. Following 25 cycles of amplification, 10% of the PCR product was resolved by electrophoresis through 2% agarose gels and processed for Southern hybridization using FITC-labeled oligonucleotide probes complimentary to internal sequences of the amplicons. Detection was performed by chemiluminescence (Amersham) and relative mRNA levels determined by densitometry after normalization with GAPDH mRNA levels.
# (§2) Finally, certain fractions were tested for their ability to increase survival, promote weight gain and reduce HIV-1 gene expression in HIV-1 transgenic mice as described herein.
# [2] = test system: Kaposi's Sarcoma induced in mice; test: Kaposi's Sarcoma tumors induced in mice by KS Y-1 cells; assay type: in vivo
# Experimental: The effects of the peptides on KS tumor cells were also evaluated in vivo in the KS mouse model. To induce KS tumors in the mice, 1×10^6/ml KS Y-1 cells in 50 μl PBS or saline were injected subcutaneously into immunodeficient mice (beige-XID-BNX mice). […] Methods for detection of apoptosis (from tissue biopsies) were used, as described in Lunardi-Iskandar et al.(1995, Nature 375:64-68). Briefly, the samples were stained in situ for the presence of cells with DNA fragmentation. Tissue slides from formalin-fixed tumors were treated with terminal deoxynucleotide transferase for extension of DNA ends (hydroxyl 3′) and incorporation of digoxigenin-11-dUTP according to the manufacturer's instructions (Oncor, Gaithersburg, Md.). Anti-digoxigenin antibody conjugated with the enzyme peroxidase allowed detection of apoptotic cells, which stain brown, whereas viable cells stain blue.
# Certain fractions were tested for activity in reducing Kaposi's Sarcoma lesions in the Kaposi's Sarcoma mouse model as described herein. In this assay, starting one week after injection of the KS Y-1 cells to induce Kaposi's sarcoma formation, the mice were injected subcutaneously with 100 IU hCG. […] After one week of the week of treatment with the hCG fractions, the KS lesions were examined for cell apoptosis and regression as described herein.
# Certain fractions of the APL™ hCG and early pregnancy urine were assayed for their ability to elicit apoptosis in Kaposi's Sarcoma lesions induced by injection of KS Y-1 cells in mice (n=3 mice for each treatment). The mice were administered 100 μl subcutaneously of the particular fraction each day for one week.
# prostate cancer cells [3] = test: Trypan blue cell death assay, prostate cancer cells; assay type: cell-based
# Experimental: (§3) The hCG preparations, fractions of the early pregnancy urine and hCG APL™ SUPERDEX™ 200 fractionations (described herein), and certain β-hCG peptides were tested on prostate, lung, breast, and kidney cancer cells in vitro, and on prostate tumors in nude mice. […] The preparations fractions and peptides were also assayed using a clonogenic assay in which cells were seeded in methylcellulose in the presence or absence of test substance and then colonies were counted after a certain period of time. Cells were also examined for apoptosis by confocal microscopy.
# The effects of hCG preparations, hCG fractions and β-hCG peptides were tested in prostate cancer cells both in vitro and in vivo. Cells were incubated in either 10% fetal bovine serum (FBS) or 3% fetal bovine serum plus hCG preparations, hCG fractions and β-hCG peptides.
# lung cancer cells [4] = test: Trypan blue cell death assay, lung cancer cells; assay type: cell-based
# Experimental: as §3
# The effects of hCG preparations, hCG fractions and β-hCG peptides were tested in lung cancer cells in vitro. Lung cancer cells were incubated with the hCG preparations, hCG fractions and β-hCG peptides in both the trypan blue viability assay and the clonogenic assay.
# breast cancer cells = test: Trypan blue cell death assay, breast cancer cells; assay type: cell-based; conditions: 100 ug/ml
# Experimental: as §3
# The effects of hCG preparations, hCG fractions and β-hCG peptides were also tested in breast cancer cells in vitro. Breast cancer cells were incubated with the hCG preparations, hCG fractions and β-hCG peptides in both the trypan blue viability assay and the clonogenic assay.
# HIV-1 transgenic mice = test: Survival, growth and weight of HIV-1 transgenic mouse pups; assay type: in vivo
# Experimental: as §1, §2
# HIV-I transgenic pups administered hCG and hCG-related preparations for the first 5 days after birth through the mothers milk were monitored for survival at 10 days after birth.
# prostate cancer cells [5] = test: Prostate cancers induced in nude mice; assay type: in vivo; conditions: peptide 200 μg per day, hCG APL 100 IU per day, systemic
# lung cancer cells [6] = test: Apoptosis by confocal microscopy, lung cancer cells; assay type: cell-based; conditions: 48 hours
# Experimental: The preparations fractions and peptides were also assayed using a clonogenic assay in which cells were seeded in methylcellulose in the presence or absence of test substance and then colonies were counted after a certain period of time. Cells were also examined for apoptosis by confocal microscopy. FIGS. 23A-F show confocal micrograms of lung cancer cells treated with the hCG or hCG related preparation and then stained with FITC labelled actin monoclonal antibody to visualize the cytoskeleton and propidium iodine to visualize the cells nucleus. Condensation of the nucleus and damage to the cytoskeleton are indications of apoptosis.
substance,measurement,setting,value
"4. Circ 44-57: β-hCG 44-57 with cysteine substituted at position 44, circularized via disulfide bond (SEQ ID NO:26) (CLQGVLPALPQVVC; disulfide 1-14 (inferred))",inhibition of HIV RNA and protein expression,[1]; inhibition of HIV RNA and protein expression in HIV-1 transgenic mice,+++ (“+++” represents greater than 70% effect)
same,HIV-1 gene / protein expression in transgenic mice (in words),[1]; pups dosed via mother's milk,considerable inhibition
same,KS in vivo,[2]; inhibition of Kaposi's Sarcoma induced in mice,+++ (“+++” represents greater than 70% effect)
same,effect on KS tumors in mice (in words),"[2]; mouse, in vivo",extensive cell death
same,percentage of cell death (trypan blue),"prostate cancer cells [3]; 3% FBS, 200 μg/ml",39%
same,percentage of cell death (trypan blue),"prostate cancer cells [3]; 3% FBS, 300 μg/ml",50%
same,percentage of cell death (trypan blue),"prostate cancer cells [3]; 10% FBS, 200 μg/ml",29%
same,percentage of cell death (trypan blue),"prostate cancer cells [3]; 10% FBS, 300 μg/ml",38%
same,% dead cells,lung cancer cells [4]; 200 μg/ml,42%
same,% dead cells,lung cancer cells [4]; 300 μg/ml,59%
same,% dead cells,breast cancer cells,42%
same,weight gain / growth retardation and cachexia,HIV-1 transgenic mice; HIV-1 transgenic pups,higher weight gain than untreated mice
same,survival at 10 days after birth,HIV-1 transgenic mice; administered first 5 days after birth through mothers milk,promote survival
same,apoptosis of prostate cancer cells in vivo,prostate cancer cells [5],caused apoptosis of the prostate cancer cells in vivo
same,apoptosis,lung cancer cells [6],increased apoptosis
